Consider 36 compounds from patent US7615569B2, “Inhibitors of ion channels” (Icagen, Inc., priority 2005, dated 2009).

T1 sequence (Q9NY46 whole entry): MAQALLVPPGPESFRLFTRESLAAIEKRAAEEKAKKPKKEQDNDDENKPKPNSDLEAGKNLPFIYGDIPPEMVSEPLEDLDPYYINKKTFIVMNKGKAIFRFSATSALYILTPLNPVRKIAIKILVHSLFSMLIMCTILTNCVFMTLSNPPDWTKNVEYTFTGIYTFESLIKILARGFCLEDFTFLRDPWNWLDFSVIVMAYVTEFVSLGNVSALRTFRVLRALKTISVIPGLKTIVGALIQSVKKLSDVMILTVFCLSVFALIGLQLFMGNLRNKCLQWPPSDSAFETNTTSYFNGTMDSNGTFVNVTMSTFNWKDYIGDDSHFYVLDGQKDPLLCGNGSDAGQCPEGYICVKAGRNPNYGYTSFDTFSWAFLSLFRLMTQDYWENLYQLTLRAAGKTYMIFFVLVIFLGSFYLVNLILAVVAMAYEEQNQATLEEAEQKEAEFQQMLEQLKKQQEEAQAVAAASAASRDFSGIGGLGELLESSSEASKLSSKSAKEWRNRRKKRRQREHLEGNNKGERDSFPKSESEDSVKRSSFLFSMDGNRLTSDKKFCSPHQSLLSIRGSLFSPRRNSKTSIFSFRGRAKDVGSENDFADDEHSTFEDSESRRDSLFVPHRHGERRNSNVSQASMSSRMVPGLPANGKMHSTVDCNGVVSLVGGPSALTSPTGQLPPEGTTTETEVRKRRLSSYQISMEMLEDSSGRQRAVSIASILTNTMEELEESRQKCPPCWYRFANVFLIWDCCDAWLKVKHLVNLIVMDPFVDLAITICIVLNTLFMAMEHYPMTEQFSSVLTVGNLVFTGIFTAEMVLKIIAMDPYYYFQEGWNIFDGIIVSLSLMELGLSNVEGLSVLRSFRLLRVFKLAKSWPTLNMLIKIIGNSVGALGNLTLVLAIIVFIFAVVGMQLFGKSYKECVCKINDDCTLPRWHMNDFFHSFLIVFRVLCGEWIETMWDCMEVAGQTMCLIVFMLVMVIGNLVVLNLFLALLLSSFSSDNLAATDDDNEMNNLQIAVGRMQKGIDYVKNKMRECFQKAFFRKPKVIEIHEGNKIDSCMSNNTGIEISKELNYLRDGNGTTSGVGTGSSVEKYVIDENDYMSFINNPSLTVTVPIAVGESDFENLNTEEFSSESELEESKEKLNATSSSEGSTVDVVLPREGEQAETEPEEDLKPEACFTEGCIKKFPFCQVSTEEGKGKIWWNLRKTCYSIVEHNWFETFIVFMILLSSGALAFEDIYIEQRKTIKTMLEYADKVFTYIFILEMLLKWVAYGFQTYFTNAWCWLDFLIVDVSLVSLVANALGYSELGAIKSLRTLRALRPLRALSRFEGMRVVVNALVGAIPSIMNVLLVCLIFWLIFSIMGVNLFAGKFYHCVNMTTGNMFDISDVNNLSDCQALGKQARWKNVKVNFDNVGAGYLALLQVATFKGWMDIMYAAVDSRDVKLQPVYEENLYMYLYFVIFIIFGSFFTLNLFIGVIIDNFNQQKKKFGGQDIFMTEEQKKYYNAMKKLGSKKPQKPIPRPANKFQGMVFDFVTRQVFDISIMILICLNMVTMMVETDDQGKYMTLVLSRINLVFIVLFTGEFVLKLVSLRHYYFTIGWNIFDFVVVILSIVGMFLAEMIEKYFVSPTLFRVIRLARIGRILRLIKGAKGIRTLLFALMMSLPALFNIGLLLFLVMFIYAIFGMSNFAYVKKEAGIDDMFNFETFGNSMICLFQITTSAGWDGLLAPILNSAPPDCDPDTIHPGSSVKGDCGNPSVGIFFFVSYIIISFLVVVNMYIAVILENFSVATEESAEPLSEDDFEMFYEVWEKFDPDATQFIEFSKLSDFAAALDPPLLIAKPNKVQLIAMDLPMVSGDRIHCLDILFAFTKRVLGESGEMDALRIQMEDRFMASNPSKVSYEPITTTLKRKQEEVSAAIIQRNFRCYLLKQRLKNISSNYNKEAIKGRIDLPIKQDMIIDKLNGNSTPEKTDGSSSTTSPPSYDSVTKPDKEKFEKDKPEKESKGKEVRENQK

This assay addresses T1, hSCN3A (Homo sapiens, UniProt Q9NY46).
T1 construct: expressed in transfected cells
Description: SCN3A inhibitory activity in HEK cells stably expressing hSCN3A (whole-cell patch clamp / radiotracer efflux HTS). The format is cell-based. Particulars: HEK cells stably transfected with hSCN3A.
Take `O=S(=O)(Nc1nccs1)c1ccc(-c2nc(CCc3ccc(C(F)(F)F)cc3)c[nH]2)cc1` [Compound 19, N-Thiazol-2-yl-4-{4-[2-(4-trifluoromethyl-phenyl)-ethyl]-1H-imidazol-2-yl}-benzenesulfonamide]: the IC50 (in general, the concentration that inhibits the measured activity by half) lay within 100 to 500 nM. `COc1ccc(CCc2c[nH]c(-c3ccc(S(=O)(=O)Nc4nccs4)cc3)n2)cc1Cl` [Compound 18, 4-{4-[2-(3-Chloro-4-methoxy-phenyl)-ethyl]-1H-imidazol-2-yl}-N-thiazol-2-yl-benzenesulfonamide] had an IC50 of 100 to 500 nM.

As to `O=S(=O)(Nc1nccs1)c1ccc(-c2nc(Cc3cccc(OC(F)(F)F)c3)c[nH]2)cc1` [Compound 43, N-Thiazol-2-yl-4-[4-(3-trifluoromethoxy-benzyl)-1H-imidazol-2-yl]-benzenesulfonamide], the half-maximal inhibitory concentration (IC50) was 500 to 1000 nM. Take `O=S(=O)(Nc1nccs1)c1ccc(-c2nnc(Cc3ccc(Cl)c(Cl)c3)[nH]2)cc1` [Compound 95, 4-[5-(3,4-Dichloro-benzyl)-4H-[1,2,4]triazol-3-yl]-N-thiazol-2-yl-benzenesulfonamide]: the IC50 is less than 100 nM. In the case of `CC1(c2ccc(S(=O)(=O)Nc3nccs3)cc2)NC(=O)N(Cc2ccc(Cl)c(Cl)c2)C1=O` (stereo not drawn) [Compound 100, 4-[1-(3,4-Dichloro-benzyl)-4-methyl-2,5-dioxo-imidazolidin-4-yl]-N-thiazol-2-yl-benzenesulfonamide], the IC50 was greater than 1000 nM. `O=S(=O)(Nc1nccs1)c1ccc(-c2nc(Cc3ccc(C(F)(F)F)cc3)c[nH]2)cc1` [Compound 34, N-Thiazol-2-yl-4-[4-(4-trifluoromethyl-benzyl)-1H-imidazol-2-yl]-benzenesulfonamide] displayed an IC50 of 100 to 500 nM. For `COc1ccc(C2(c3c[nH]c(-c4ccc(S(=O)(=O)Nc5nccs5)cc4)n3)CC2)cc1` [Compound 44, 4-{4-[1-(4-Methoxy-phenyl)-cyclopropyl]-1H-imidazol-2-yl}-N-thiazol-2-yl-benzenesulfonamide], the half-maximal inhibitory concentration (IC50) lay in the range of 500 to 1000 nM. To `O=S(=O)(Nc1nccs1)c1ccc(-c2ncc(Cc3cc(F)cc(F)c3)[nH]2)cc1` [Compound 7, 4-[5-(3,5-Difluoro-benzyl)-1H-imidazol-2-yl]-N-thiazol-2-yl-benzenesulfonamide] belongs 100 to 500 nM; to `O=S(=O)(Nc1nccs1)c1ccc(-c2nc(CCc3ccccc3Cl)c[nH]2)cc1` [Compound 14, 4-{4-[2-(2-Chloro-phenyl)-ethyl]-1H-imidazol-2-yl}-N-thiazol-2-yl-benzenesulfonamide], 100 to 500 nM; to `Cc1nc(-c2ccc(S(=O)(=O)Nc3nccs3)cc2)[nH]c1-c1ccccc1` [Compound 4, 4-(4-Methyl-5-phenyl-1H-imidazol-2-yl)-N-thiazol-2-yl-benzenesulfonamide], 500 to 1000 nM.

The compound `Cc1ccc(C2(c3c[nH]c(-c4ccc(S(=O)(=O)Nc5nccs5)cc4)n3)CCCCC2)cc1` [Compound 21, N-Thiazol-2-yl-4-[4-(1-p-tolyl-cyclohexyl)-1H-imidazol-2-yl]-benzenesulfonamide] displayed an IC50 of 100 to 500 nM.

As to `O=S(=O)(Nc1nccs1)c1ccc(-c2nnc(C(c3ccccc3)c3ccccc3)[nH]2)cc1` [Compound 3, 4-(5-Benzhydryl-4H-[1,2,4]triazol-3-yl)-N-thiazol-2-yl-benzenesulfonamide], the IC50 fell in the range of 100 to 500 nM. In turn, `O=S(=O)(Nc1nccs1)c1ccc(-c2nc(COc3c(Cl)cccc3Cl)n[nH]2)cc1F` [Compound 115, 4-[5-(2,6-Dichloro-phenoxymethyl)-2H-[1,2,4]triazol-3-yl]-2-fluoro-n-thiazol-2-yl-benzenesulfonamide] had an IC50 of 100 to 500 nM.

For `O=S(=O)(Nc1nccs1)c1ccc(-c2nc(CCc3cc(C(F)(F)F)ccc3C(F)(F)F)c[nH]2)cc1` [Compound 22, 4-{4-[2-(2,5-Bis-trifluoromethyl-phenyl)-ethyl]-1H-imidazol-2-yl}-N-thiazol-2-yl-benzenesulfonamide], the IC50 was in the range of 100 to 500 nM. Under `O=S(=O)(Nc1nccs1)c1ccc(-c2ncc(C(c3ccccc3)c3ccccc3)[nH]2)cc1` [Compound 6, 4-(5-Benzhydryl-1H-imidazol-2-yl)-N-thiazol-2-yl-benzenesulfonamide] stands 100 to 500 nM; under `O=S(=O)(Nc1nccs1)c1ccc(-c2nc(Cc3ccc(F)cc3Cl)c[nH]2)cc1` [Compound 13, 4-[4-(2-Chloro-4-fluoro-benzyl)-1H-imidazol-2-yl]-N-thiazol-2-yl-benzenesulfonamide], less than 100 nM. The compound `O=S(=O)(Nc1nccs1)c1ccc(-c2nc(CCc3cc(Cl)cc(Cl)c3)c[nH]2)cc1` [Compound 26, 4-{4-[2-(3,5-Dichloro-phenyl)-ethyl]-1H-imidazol-2-yl}-N-thiazol-2-yl-benzenesulfonamide] displayed an IC50 of less than 100 nM. In the case of `O=S(=O)(Nc1nccs1)c1ccc(-c2nc(Cc3ccc(Cl)c(Cl)c3)c[nH]2)cc1` [Compound 36, 4-[4-(3,4-Dichloro-benzyl)-1H-imidazol-2-yl]-N-thiazol-2-yl-benzenesulfonamide], the IC50 is less than 100 nM. Consider `CS(=O)(=O)c1ccc(Cc2c[nH]c(-c3ccc(S(=O)(=O)Nc4nccs4)cc3)n2)cc1` [Compound 54, 4-[4-(4-Methanesulfonyl-benzyl)-1H-imidazol-2-yl]-N-thiazol-2-yl-benzenesulfonamide], for which the IC50 is greater than 1000 nM. `O=S(=O)(Nc1nccs1)c1ccc(-c2cc(CCCOc3ccc(Cl)cc3Cl)[nH]n2)cc1` [Compound 123, 4-{5-[3-(2,4-Dichloro-phenoxy)-propyl]-1H-pyrazol-3-yl}-N-thiazol-2-yl-benzenesulfonamide] displayed an IC50 of 100 to 500 nM. As to `O=S(=O)(Nc1nccs1)c1ccc(-c2nc(-c3ncc(C(F)(F)F)cc3Cl)n[nH]2)cc1F` [Compound 116, 4-[5-(3-Chloro-5-trifluoromethyl-pyridin-2-yl)-2H-[1,2,4]triazol-3-yl]-2-fluoro-n-thiazol-2-yl-benzenesulfonamide], the IC50 was in the range of 100 to 500 nM. Under `O=S(=O)(Nc1nccs1)c1ccc(-c2nc(C(c3ccccc3)C3CCCCC3)c[nH]2)cc1` (stereo not drawn) [Compound 47, 4-[4-(Cyclohexyl-phenyl-methyl)-1H-imidazol-2-yl]-N-thiazol-2-yl-benzenesulfonamide] stands 100 to 500 nM; under `O=S(=O)(Cc1ncc(Cl)s1)c1ccc(-c2nc(CCc3cc(Cl)cc(Cl)c3)c[nH]2)cc1` [Compound 122, 5-Chloro-2-(4-{4-[2-(3,5-dichloro-phenyl)-ethyl]-1H-imidazol-2-yl}-benzenesulfonylmethyl)-thiazole], less than 100 nM. Under `O=S(=O)(Nc1nccs1)c1ccc(-c2nc(Cc3cccc(Cl)c3)c[nH]2)cc1` [Compound 16, 4-[4-(3-Chloro-benzyl)-1H-imidazol-2-yl]-N-thiazol-2-yl-benzenesulfonamide] stands less than 100 nM. `CC1(c2ccc(S(=O)(=O)Nc3nccs3)cc2)C(=O)NC(=O)N1Cc1ccc(Cl)c(Cl)c1` (stereo not drawn) [Compound 99, 4-[3-(3,4-Dichloro-benzyl)-4-methyl-2,5-dioxo-imidazolidin-4-yl]-N-thiazol-2-yl-benzenesulfonamide]: the IC50 was greater than 1000 nM.

With `O=S(=O)(Nc1nccs1)c1ccc(-c2nc(Cc3ccccc3C(F)(F)F)c[nH]2)cc1` [Compound 51, N-Thiazol-2-yl-4-[4-(2-trifluoromethyl-benzyl)-1H-imidazol-2-yl]-benzenesulfonamide], the half-inhibitory concentration (IC50) was in the range of 100 to 500 nM. `O=S(=O)(Nc1nccs1)c1ccc(-c2nc(CCc3cc(Cl)cc(Cl)c3)c(I)[nH]2)cc1` [Compound 68, 4-{4-[2-(3,5-Dichloro-phenyl)-ethyl]-5-iodo-1H-imidazol-2-yl}-N-thiazol-2-yl-benzenesulfonamide]: the IC50 is less than 100 nM. Under `CC1(Cc2ccc(Cl)c(Cl)c2)N=C(c2ccc(S(=O)(=O)Nc3nccs3)cc2)NC1=O` (stereo not drawn) [Compound 107, 4-[4-(3,4-Dichloro-benzyl)-4-methyl-5-oxo-4,5-dihydro-1H-imidazol-2-yl]-N-thiazol-2-yl-benzenesulfonamide] stands greater than 1000 nM; under `O=S(=O)(Nc1nccs1)c1ccc(-c2nc(Cc3ccc4c(c3)OCO4)c[nH]2)cc1` [Compound 49, 4-(4-Benzo[1,3]dioxol-5-ylmethyl-1H-imidazol-2-yl)-N-thiazol-2-yl-benzenesulfonamide], 500 to 1000 nM.

In the case of `O=S(=O)(Nc1nccs1)c1ccc(-c2nc(Cc3ccc(Cl)cc3)n[nH]2)cc1F` [Compound 114, 4-[5-(4-Chloro-benzyl)-2H-[1,2,4]triazol-3-yl]-2-fluoro-n-thiazol-2-yl-benzenesulfonamide], the IC50 was less than 100 nM. For the compound `Cc1ccc(C)c(CCc2c[nH]c(-c3ccc(S(=O)(=O)Nc4nccs4)cc3)n2)c1` [Compound 29, 4-{4-[2-(2,5-Dimethyl-phenyl)-ethyl]-1H-imidazol-2-yl}-N-thiazol-2-yl-benzenesulfonamide], the IC50 is 100 to 500 nM. To `O=S(=O)(Nc1nccs1)c1ccc(-c2nc(COc3c(Cl)cccc3Cl)n[nH]2)cc1` [Compound 119, 4-[5-(2,6-Dichloro-phenoxymethyl)-2H-[1,2,4]triazol-3-yl]-n-thiazol-2-yl-benzenesulfonamide] belongs greater than 1000 nM; to `O=S(=O)(Nc1nccs1)c1ccc(-c2nnc(Cc3cccc(Cl)c3)[nH]2)cc1` [Compound 96, 4-[5-(3-Chloro-benzyl)-4H-[1,2,4]triazol-3-yl]-N-thiazol-2-yl-benzenesulfonamide], 100 to 500 nM.

`O=S(=O)(Nc1nccs1)c1ccc(-c2nc(Cc3ccc(Oc4ccccc4)cc3)c[nH]2)cc1` [Compound 42, 4-[4-(4-Phenoxy-benzyl)-1H-imidazol-2-yl]-N-thiazol-2-yl-benzenesulfonamide] yielded an IC50 of less than 100 nM. Compound `O=S(=O)(Nc1nccs1)c1ccc(-c2nc(C3(c4ccc(Cl)cc4)CCC3)c[nH]2)cc1` [Compound 25, 4-{4-[1-(4-Chloro-phenyl)-cyclobutyl]-1H-imidazol-2-yl}-N-thiazol-2-yl-benzenesulfonamide] yielded an IC50 of 100 to 500 nM.

Compound `O=S(=O)(Nc1nccs1)c1ccc(-c2nc(-c3ccccc3)c(-c3ccccc3)[nH]2)cc1` [Compound 1, 4-(4,5-Diphenyl-1H-imidazol-2-yl)-N-thiazol-2-yl-benzenesulfonamide] registered an IC50 of 100 to 500 nM.
